Measured values taken from US20070129344A1, “Bicyclic 6-alkylidene-penem beta-lactamase inhibitors and beta-lactam antibiotic combination: a broad spectrum antibiotic” (priority 2005, published 2007).
Where a name gives a salt, the structure may show the parent alone. Read-outs that look alike come from different tables or passages of the source.

Columns and labels:
E. coli GC 1807 OXA-7 = experiment: MIC microbroth dilution; β-lactamase class D; assay type: cell-based
Method: (§1) The in vitro activities of the antibiotics were determined by the microbroth dilution method as recommended by the National Committee for Clinical Laboratory Standards (NCCLS). (NCCLS. 2000. Methods for Dilution Antimicrobial Susceptibility Tests for Bacteria That Grow Aerobically; Approved Standards: M7-A5, vol. 19. National Committee for Clinical Laboratory Standards, Villanova, Pa.). Mueller-Hinton II broth (MHBII)(BBL Cockeysville, Md.), was used for the testing procedure. […]. The plates were incubated for 18-22 hours at 35° C. in ambient air.

E. coli GC 1480 OXA-1 = experiment: MIC microbroth dilution; β-lactamase class D; assay type: cell-based
Method: as §1

[1] = test system: E. coli GAR 6649 TEM, OXA, CTX (By PCR only); experiment: MIC microbroth dilution; β-lactamase class A, A (ESBL), D; assay type: cell-based
Method: as §1

[2] = test system: S. maltophilia GC 1712 (L1); experiment: MIC microbroth dilution; β-lactamase class B; assay type: cell-based
Method: as §1

E. coli GC 2920 (IRT-2) = experiment: MIC microbroth dilution; β-lactamase class A (IRT); assay type: cell-based
Method: as §1

K. pn GC 6639 (SHV-13) = experiment: MIC microbroth dilution; β-lactamase class A (ESBL); assay type: cell-based, K. pneumoniae
Method: as §1

[3] = test system: C. freundii GC 4171 TEM-1 + InducibleAmpC; experiment: MIC microbroth dilution; β-lactamase class A, C; assay type: cell-based
Method: as §1

[4] = test system: E. coli GC 6197 (TEM-1 + SHV-7 + CMY-2); experiment: MIC microbroth dilution; β-lactamase class A, A (ESBL), C; assay type: cell-based
Method: as §1

[5] = test system: K. pneumoniae GC 2825 Act 1 + 3 additional; experiment: as above; assay type: cell-based
Method: as §1

[6] = test system: K. pneumoniae GC 2826 Act 1 + 3 additional; experiment: as above; assay type: cell-based
Method: as §1

[7] = test system: E. coli GC 2149 (ACT-1; TEM-1 + pl 5.6); experiment: as above; assay type: cell-based
Method: as §1

[8] = test system: E. coli GC 4971 OXA-1, TEM-1; experiment: MIC microbroth dilution; β-lactamase class A, D; assay type: cell-based
Method: as §1

[9] = test system: A. baumannii PT 8321 PTZ-R; experiment: MIC microbroth dilution; β-lactamase class not determined; assay type: cell-based
Method: as §1

[10] = test system: A. baumannii PT 9158 PTZ-R; experiment: as above; assay type: cell-based
Method: as §1

[11] = test system: S. marcescens GC 1781 (Sme-1 + AmpC); experiment: MIC microbroth dilution; β-lactamase class A (Cb'ase), C; assay type: cell-based
Method: as §1

[12] = test system: E. aerogenes GC 7036 TEM-24, Amp C inducable; experiment: MIC microbroth dilution; β-lactamase class A (ESBL), C; assay type: cell-based
Method: as §1

[13] = test system: M. morganii GC 1617 TEM-10 + inducible AmpC; experiment: as above; assay type: cell-based
Method: as §1

[14] = test system: E. aerogenes GC 7039 TEM-4, Amp C inducable; experiment: as above; assay type: cell-based
Method: as §1

[15] = test system: E. cloacae GC 7065 TEM-26, SHV-12 Amp C inducable; experiment: as above; assay type: cell-based
Method: as §1

[16] = test system: E. cloacae GC 7052 SHV-5, Amp C inducable; experiment: as above; assay type: cell-based
Method: as §1

E. coli GC 1995 (TEM-10) = experiment: MIC microbroth dilution; β-lactamase class A (ESBL); assay type: cell-based
Method: as §1

E. coli GC 1684 (TEM-10) = experiment: as above; assay type: cell-based
Method: as §1

E. coli GC 2400 (TEM-43) = experiment: as above; assay type: cell-based
Method: as §1

[17] = test system: S. typhimurium GC 4197 CTX-M-5; experiment: as above; assay type: cell-based
Method: as §1

E. coli GC 6368 (SHV-7) = experiment: as above; assay type: cell-based
Method: as §1

[18] = test system: E. coli GC 2017 (TEM-10 + pl 6.3; 8.1); experiment: as above; assay type: cell-based
Method: as §1

E. coli GC 2300 (TEM-28) = experiment: as above; assay type: cell-based
Method: as §1

[19] = test system: K. pneumoniae GC 7635 SHV-1, KPC2; experiment: MIC microbroth dilution; β-lactamase class A, A (Cb'ase); assay type: cell-based
Method: as §1

[20] = test system: E. coli GC 1695 (TEM-1 + TEM-10); experiment: MIC microbroth dilution; β-lactamase class A, A (ESBL); assay type: cell-based
Method: as §1

[21] = test system: E. coli GC 2146 (TEM-1; SHV-7); experiment: as above; assay type: cell-based
Method: as §1

[22] = test system: E. coli GC 5901 (TEM-1 and SHV-8); experiment: as above; assay type: cell-based
Method: as §1

[23] = test system: E. coli GC 2015 (TEM-10 + SHV-1); experiment: as above; assay type: cell-based
Method: as §1

[24] = test system: E. coli GC 1499 (TEM-4 + TEM-1); experiment: as above; assay type: cell-based
Method: as §1

[25] = test system: E. coli GC 6260 (TEM-1 + SHV-5); experiment: as above; assay type: cell-based
Method: as §1

[26] = Escherichia coli, Cefepime + 4 ug/ml Compound 2, read-out: MIC
[27] = Klebsiella pneumoniae, Cefepime + 4 ug/ml Compound 2, read-out: MIC
[28] = Klebsiella aerogenes, Cefepime + 4 ug/ml Compound 2, read-out: MIC
[29] = Enterobacter cloacae, Cefepime + 4 ug/ml Compound 2, read-out: MIC

Measured: MIC

O=C([O-])C1=CS[C@@H]2/C(=C\c3cn4c(n3)CCC4)C(=O)N12.[Na+] [Compound 1, (5R), (6Z)-6-(6,7-Dihydro-5H-pyrrolo[1,2-a]imidazol-2-ylmethylene)-7-oxo-4-thia-1-aza-bicyclo[3.2.0]hept-2-ene-2-carboxylic Acid, Sodium Salt]
1 mg/L: [1]; Cefepime + 4 ug/ml Compound 1 | [6]; Cefepime + 4 ug/ml Compound 1 | [16]; Cefepime + 4 ug/ml Compound 1 | [17]; Cefepime + 4 ug/ml Compound 1
16 mg/L: [2]; Cefepime + 4 ug/ml Compound 1 | [10]; Cefepime + 4 ug/ml Compound 1
4 mg/L: [4]; Cefepime + 4 ug/ml Compound 1 | [22]; Cefepime + 4 ug/ml Compound 1
0.25 mg/L: K. pn GC 6639 (SHV-13); Cefepime + 4 ug/ml Compound 1 | E. coli GC 2300 (TEM-28); Cefepime + 4 ug/ml Compound 1 | [23]; Cefepime + 4 ug/ml Compound 1
0.03 mg/L: [14]; Cefepime + 4 ug/ml Compound 1 | E. coli GC 6368 (SHV-7); Cefepime + 4 ug/ml Compound 1 | [20]; Cefepime + 4 ug/ml Compound 1 | [25]; Cefepime + 4 ug/ml Compound 1
0.50 mg/L: [7]; Cefepime + 4 ug/ml Compound 1 | E. coli GC 2400 (TEM-43); Cefepime + 4 ug/ml Compound 1 | [24]; Cefepime + 4 ug/ml Compound 1
<0.015 mg/L: E. coli GC 1807 OXA-7; E. coli GC 1807, Cefepime + 4 ug/ml Compound 1
8 mg/L: [19]; Cefepime + 4 ug/ml Compound 1
>16 mg/L: [9]; Cefepime + 4 ug/ml Compound 1
0.06 mg/L: E. coli GC 1480 OXA-1; E. coli GC 1480, Cefepime + 4 ug/ml Compound 1 | E. coli GC 2920 (IRT-2); Cefepime + 4 ug/ml Compound 1 | [3]; C. freundii GC 4171, Cefepime + 4 ug/ml Compound 1 | [12]; Cefepime + 4 ug/ml Compound 1 | [15]; Cefepime + 4 ug/ml Compound 1 | E. coli GC 1995 (TEM-10); Cefepime + 4 ug/ml Compound 1 | E. coli GC 1684 (TEM-10); Cefepime + 4 ug/ml Compound 1
0.12 mg/L: [5]; Cefepime + 4 ug/ml Compound 1 | [8]; Cefepime + 4 ug/ml Compound 1 | [11]; Cefepime + 4 ug/ml Compound 1 | [13]; Cefepime + 4 ug/ml Compound 1 | [18]; Cefepime + 4 ug/ml Compound 1 | [21]; Cefepime + 4 ug/ml Compound 1

O=C(O)C1=CS[C@@H]2/C(=C\c3cn4c(n3)COCC4)C(=O)N12 [Compound 2, (5R), (6Z)-6-(5,6-Dihydro-8H-imidazo[2.1-c][1,4]oxazin-2-ylmethylene)-7-oxo-4-thia-1-azabicyclo[3.2.0]hept-2-ene-2-carboxylic Acid, Sodium Salt]
0.5 mg/L: [7]; [26] | E. coli GC 2400 (TEM-43); [26]
0.06 mg/L: E. coli GC 1480 OXA-1; Escherichia coli, GC1480OXA1, E. coli GC 1480, Cefepime + 4 ug/ml Compound 2, read-out: MIC | E. coli GC 2920 (IRT-2); [26] | [3]; Citrobacter freundii | [11]; Serratia marcescens, Cefepime + 4 ug/ml Compound 2, read-out: MIC | [12]; [28] | [14]; [28] | [15]; [29] | E. coli GC 1684 (TEM-10); [26] | E. coli GC 6368 (SHV-7); [26] | [18]; [26]
1 mg/L: [1]; [26] | [6]; [27] | [16]; [29] | [24]; [26]
0.25 mg/L: [17]; Salmonella enterica, Cefepime + 4 ug/ml Compound 2, read-out: MIC | E. coli GC 2300 (TEM-28); [26]
> 16 mg/L: [9]; Acinetobacter baumannii, PT8321PTZR, Cefepime + 4 ug/ml Compound 2, read-out: MIC
16 mg/L: [2]; Stenotrophomonas maltophilia, Cefepime + 4 ug/ml Compound 2, read-out: MIC | [10]; Acinetobacter baumannii, PT9158PTZR, Cefepime + 4 ug/ml Compound 2, read-out: MIC
0.03 mg/L: E. coli GC 1807 OXA-7; Escherichia coli, GC1807OXA7, E. coli GC 1807, Cefepime + 4 ug/ml Compound 2, read-out: MIC | E. coli GC 1995 (TEM-10); [26] | [20]; [26] | [25]; [26]
0.12 mg/L: K. pn GC 6639 (SHV-13); [27] | [5]; [27] | [8]; [26] | [13]; Morganella morganii, Cefepime + 4 ug/ml Compound 2, read-out: MIC | [21]; [26] | [23]; [26]
4 mg/L: [19]; [27]
2 mg/L: [4]; [26] | [22]; [26]
